Measurements reported in ChEMBL document CHEMBL1146890, “Arylaminoethyl carbamates as a novel series of potent and selective cathepsin S inhibitors” (Bioorg Med Chem Lett, 2006).

Legend:
Assay type in all cases: ADME, organism-based
[1] = Volume of distribution in Wistar rat at 3 mg/kg, iv; design: dose 3 mg/kg, route intravenous; settings: in vivo, read-out: Vdss
[2] = Cmax in Wistar rat at 10 mg/kg, po; design: dose 10 mg/kg, route oral; settings: in vivo
[3] = Half life in Wistar rat at 3 mg/kg, iv; design: dose 3 mg/kg, route intravenous; settings: in vivo
[4] = Clearance in Wistar rat at 3 mg/kg, iv; design: dose 3 mg/kg, route intravenous; settings: in vivo
[5] = AUC in Wistar rat at 10 mg/kg, po; design: dose 10 mg/kg, route oral; settings: plasma
[6] = Half life in Wistar rat at 10 mg/kg, po; design: dose 10 mg/kg, route oral; settings: in vivo
[7] = Oral bioavailability in Wistar rat at 10 mg/kg, po; settings: in vivo

For `C[C@@H](CN1c2ccc(F)cc2CC1(C)C)NC(=O)O[C@@H](CC1CCCCC1)C(=O)N1CCOCC1`, the Vd [1] was 3.1 L/kg, the Cmax [2] was 0.513 µM and the half-life [3] was 1.37 h. The clearance [4] was 3.12 L/h/kg, the AUC [5] was 0.733 µg·h/mL and the half-life [6] was 1.03 h. For the same compound, the bioavailability [7] was 23%.

For `C[C@@H](CN1CC(C)(C)c2cc(F)ccc21)NC(=O)[C@H](CC1CCCCC1)NC(=O)N1CCOCC1`, the Vd [1] was 1.76 L/kg, the Cmax [2] was 0.118 µM and the half-life [3] was 0.717 h. It also gave a clearance [4] of 3.12 L/h/kg, an AUC [5] of 0.133 µg·h/mL and a half-life [6] of 0.85 h. It also gave a bioavailability [7] of 4%.

With `C[C@@H](CN1CC(C)(C)c2cc(F)ccc21)NC(=O)O[C@@H](CC1CCCCC1)C(=O)N1CCOCC1` the Vd [1] was 4.1 L/kg, the Cmax [2] was 0.774 µM and the half-life [3] was 1.67 h. For the same compound, the clearance [4] was 3.12 L/h/kg, the AUC [5] was 1.35 µg·h/mL and the half-life [6] was 1.15 h. It also gave a bioavailability [7] of 42%.
